Activity calls are given as the source filed them. The calls are words filed in the database; no cut-off is given here.
Tests used:
[1] = Half life in rat plasma by HPLC analysis; type: ADME, cell-free
[2] = Inhibition of HDAC in human HeLa nuclear extract preincubated for 5 mins followed by Boc-Lys (acetyl)-AMC addition measured after 10 mins by fluorescence assay
[3] = system: MDA-MB-231; test: Antiproliferative activity against human MDA-MB-231 cells after 48 hrs by MTT assay; type: functional, cell-based; conditions: MDA-MB-231, 48 h
[4] = system: U-937; test: Antiproliferative activity against human U937 cells after 48 hrs by MTT assay; type: functional, cell-based; conditions: U-937, 48 h
[5] = system: U-266; test: Antiproliferative activity against human U266 cells after 48 hrs by MTT assay; type: functional, cell-based; conditions: U-266, 48 h
[6] = system: MDA-MB-231; test: Antitumor activity against human MDA-MB-231 cells xenografted subcutaneously in BALB/c nude mouse assessed as reduction in tumor growth at 90 mg/kg, po; type: functional, organism-based
[7] = system: MDA-MB-231; test: Antitumor activity against human MDA-MB-231 cells xenografted subcutaneously in BALB/c nude mouse assessed as reduction in tumor volume at 90 mg/kg, po; type: functional, organism-based
[8] = molecular target: Histone deacetylase 1/2/3 (Homo sapiens) (UniProt Q13547+O15379+Q92769); test: Inhibition of HDAC1/2/3 in human MDA-MB-231 cells assessed as increase in hyperacetylation of histone H3 level at 1 uM after 3 hrs by Western blot analysis; type: cell-based
[9] = molecular target: T1, Protein deacetylase HDAC6 (Homo sapiens) (UniProt Q9UBN7); test: Inhibition of HDAC6 in human MDA-MB-231 cells assessed as increase in acetylated alpha tubulin level at 1 uM after 3 hrs by Western blot analysis; type: cell-based
T1 sequence (whole entry): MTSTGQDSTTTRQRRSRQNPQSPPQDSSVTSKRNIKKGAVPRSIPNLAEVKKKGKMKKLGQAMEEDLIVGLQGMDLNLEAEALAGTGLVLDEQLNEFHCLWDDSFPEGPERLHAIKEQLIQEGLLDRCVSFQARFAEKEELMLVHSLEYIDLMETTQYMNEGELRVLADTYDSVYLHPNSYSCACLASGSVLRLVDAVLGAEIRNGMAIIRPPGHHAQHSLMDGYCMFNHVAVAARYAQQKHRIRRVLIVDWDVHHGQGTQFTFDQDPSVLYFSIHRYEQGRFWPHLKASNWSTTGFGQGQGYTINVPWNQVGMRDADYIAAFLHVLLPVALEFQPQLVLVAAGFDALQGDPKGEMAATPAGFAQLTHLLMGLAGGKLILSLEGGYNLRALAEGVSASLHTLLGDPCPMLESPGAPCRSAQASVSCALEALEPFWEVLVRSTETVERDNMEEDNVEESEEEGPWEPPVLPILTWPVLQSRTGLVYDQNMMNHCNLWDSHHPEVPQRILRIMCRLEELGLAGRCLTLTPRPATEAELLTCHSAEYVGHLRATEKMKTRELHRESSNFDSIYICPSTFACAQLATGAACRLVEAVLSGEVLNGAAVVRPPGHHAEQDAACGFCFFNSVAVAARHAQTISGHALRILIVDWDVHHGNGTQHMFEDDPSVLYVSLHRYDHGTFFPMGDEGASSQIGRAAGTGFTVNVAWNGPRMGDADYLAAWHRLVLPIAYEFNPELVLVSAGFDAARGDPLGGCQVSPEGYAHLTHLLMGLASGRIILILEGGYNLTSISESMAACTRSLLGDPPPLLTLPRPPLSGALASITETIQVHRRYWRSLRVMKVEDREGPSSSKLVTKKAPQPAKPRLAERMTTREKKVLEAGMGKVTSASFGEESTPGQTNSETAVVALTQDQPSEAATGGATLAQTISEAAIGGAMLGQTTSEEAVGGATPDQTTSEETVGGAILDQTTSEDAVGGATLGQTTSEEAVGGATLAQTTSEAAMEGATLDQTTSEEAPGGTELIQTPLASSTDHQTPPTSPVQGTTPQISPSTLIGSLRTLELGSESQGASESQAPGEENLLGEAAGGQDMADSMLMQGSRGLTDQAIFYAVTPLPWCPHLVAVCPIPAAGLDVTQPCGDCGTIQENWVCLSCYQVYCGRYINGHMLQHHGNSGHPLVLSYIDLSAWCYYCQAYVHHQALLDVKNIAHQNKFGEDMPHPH

| half-life [1] [h] | IC50 [2] [nM] | IC50 [3] [nM] | IC50 [4] [nM] | inhibition [8] | inhibition [9] | SMILES | IC50 [5] [nM] | TGI [6] | inhibition [7] |
| --- | --- | --- | --- | --- | --- | --- | --- | --- | --- |
| 1.13 | 377 | – | – | – | – | CN(C)c1ccc(NC(=O)[C@@H]2Cc3ccc(OCC(=O)NO)cc3CN2C(=O)CNC(=O)CC(C)(C)C)cc1 | – | – | – |
| 1.72 | 69.4 | 2560 | 560 | Active | Active | CC[C@H](C)[C@H](NC(=O)CC(C)(C)C)C(=O)N1Cc2cc(OCC(=O)NO)ccc2C[C@H]1C(=O)Nc1ccc(OC)cc1 | 690 | Active | Active |
| 10.5 | 38.5 | 2130 | 550 | Active | Active | CC[C@H](C)[C@H](NC(=O)CC(C)(C)C)C(=O)N1Cc2cc(OCC(=O)NO)ccc2C[C@H]1C(=O)Nc1ccc(N(C)C)cc1 | 780 | Active | Active |
| 2.18 | 55 | – | – | – | – | CC[C@H](C)[C@H](NC(=O)OC(C)(C)C)C(=O)N1Cc2cc(OCC(=O)NO)ccc2C[C@H]1C(=O)Nc1ccc(N(C)C)cc1 | – | – | – |

— ChEMBL document CHEMBL4043130, “Discovery of a tetrahydroisoquinoline-based HDAC inhibitor with improved plasma stability” (Bioorg Med Chem, 2017)
